Source: patent US11939377B2, “Affinity matured CD22-specific monoclonal antibody and uses thereof” (The U.S.A., as represented by the Secretary, Department of …, priority 2018, dated 2024)

What was measured:
[1] = test system: CD22^neg, CD22^lo or Nalm6 cells; experiment: In vitro leukemia clearance assay (IncuCyte, loss of GFP-positive cells); format: cell-based, human; details: effector-to-target 1:1
Method: Cell death was monitored by loss of GFP-positive cells using Incucyte analysis. (FIG. 2B) NSG mice were injected with 1×10^6 GPF-positive CD22neg, CD22lo, or Nalm6 tumor cells on Day 0. […] Mice were imaged using IVIS technology after luciferin-D IP injection. […] Cells were stained for flow cytometry and analyzed on a Fortessa flow machine. (FIG. 2E) Site density cell lines were co-incubated with CD22 CART for 24 hours, and PD1 expression was stained for flow cytometry and analyzed on Fortessa flow machine. MFI=mean fluorescence intensity. […] (FIG. 2G) CD22 site density was evaluated using flow cytometry and Quantibrite analysis for CRISPR-edited Nalm6 cell lines.
FIGS. 5A-5D: (FIGS. 5A-5B) CD22 CART cells were co-incubated with 1 ng/ml of Bryostatin 1 for 24 hours and washed. […] IFN-γ (FIG. 5A) and granzyme B (FIG. 5B) were measured by ELISA from cell culture supernatants. Statistical analysis was performed using an unpaired t-test (**** p<0.0001, *** p<0.0002, ** p<0.0021, * p<0.0332). […] Cell death was monitored by loss of GFP-positive cells using Incucyte analysis. (FIG. 5D) NSG mice were injected with Nalm6 on Day 0, CD22 CART cells on Day 3, and then were given either DMSO control or Bryostatin 1 at 0.8 μg/kg once weekly for 2 weeks. Leukemia progression was monitored using IVIS technology and luciferin-D IP injections. […]

[2] = biological target: T1, PKC-βII (Homo sapiens, UniProt P05771); experiment: PKC-βII western blot of Bryostatin 1-treated cell lines; format: cell-based; details: 24 hours exposure
T1 construct: Leukemia cell protein extracts were prepared by lysing cells with RIPA buffer; endogenous in cells; host or cells: Toledo, Kopn8, Nalm6
Method: (§1) FIGS. 10A-10E: (FIG. 10A) Three cell lines (Toldeo, Kopn8 and Nalm6) were co-incubated with Bryostatin 1 at varying concentrations for 24 hours. At 24 hours, cells were collected for protein kinase C (PKC)-βII isoform analysis by western blot. (FIG. 10B) KOPN8 or SEM cell lines were exposed to Bryostatin 1 for 16, 24, 48 or 72 hours. RNA was extracted from cells and analyzed using RNAseq. (FIG. 10C) Immunofluorescent staining of CD22 was conducted through permeabilization followed by staining of CD22. (FIG. 10D) Four cell lines were co-incubated with various combinations of Enzastaurin (10 μM), Staurosporine (100 μM), or Bryostatin 1 (1 nM) for 24 hours. CD22 expression was assessed using flow cytometry. MFI fold change=CD22 MFI^Bryostatin1/CD22 MFI^DMSO. (FIG. 10E) Cell lines were co-incubated with 1 nM Bryostatin 1 for 24 hours and measured for CD22 expression using CD22-PE antibody. MFI fold change=CD22 MFI^Bryostatin 1/CD22 MFI^DMSO.
Leukemia cell protein extracts were prepared by lysing cells with RIPA buffer and heating at 98° C. for 5 minutes. The proteins were separated on an SDS-PAGE gel and transferred to a nitrocellulose membrane. The membranes were immunoblotted with antibodies PKC-βII and GAPDH (Abcam), overnight at 4° C. […]

[3] = test system: CD22; experiment: Immunofluorescent staining of CD22 in permeabilized leukemia cells; format: cell-based, human; details: 24 hours after exposure, 1 nM
Method: as §1
μ-dish 35 mm, high glass bottom dishes (Ibidi Inc, Madison, WI) were coated with poly-D-lysine for 2 hours and then seeded with 5×10^5 leukemia cells, which had been pre-treated with either 1 nM Bryostatin 1 or DMSO control for 24 hours. Approximately 12 hours after seeding, cells were fixed in 4% paraformaldehyde and then permeabilized with 0.2% Triton X-100 detergent. […]

[4] = test system: ALL and DLBCL tumor cells (Nalm6 site density lines and others); experiment: In vitro cytokine / granzyme B production assay (ELISA), CAR T cells co-cultured with tumor cells; format: cell-based, human
Method: For cytokine production assays, CAR or mock T cells were washed to remove IL-2 and re-suspended in RPMI medium. 1×10^5 effector cells were then co-cultured with tumor cells in RPMI at a 1:1 effector to target ratio in 96-well plates and incubated at 37° C. for 20 hours. The plates were spun at 1200 RPM for 6 minutes to pellet the cells, and cytokine concentrations in the culture supernatants were measured using IL-2 ELISA (R&D systems), IFNγ ELISA (R&D systems), or granzyme B ELISA (Thermo Fisher Scientific) kits according to the manufacturer's directions.

[5] = CAR T cells pre-treated 1 ng/ml 24 hours, co-culture with ALL or DLBCL cell lines

T1 sequence (P05771 1-673 isoform P05771-2): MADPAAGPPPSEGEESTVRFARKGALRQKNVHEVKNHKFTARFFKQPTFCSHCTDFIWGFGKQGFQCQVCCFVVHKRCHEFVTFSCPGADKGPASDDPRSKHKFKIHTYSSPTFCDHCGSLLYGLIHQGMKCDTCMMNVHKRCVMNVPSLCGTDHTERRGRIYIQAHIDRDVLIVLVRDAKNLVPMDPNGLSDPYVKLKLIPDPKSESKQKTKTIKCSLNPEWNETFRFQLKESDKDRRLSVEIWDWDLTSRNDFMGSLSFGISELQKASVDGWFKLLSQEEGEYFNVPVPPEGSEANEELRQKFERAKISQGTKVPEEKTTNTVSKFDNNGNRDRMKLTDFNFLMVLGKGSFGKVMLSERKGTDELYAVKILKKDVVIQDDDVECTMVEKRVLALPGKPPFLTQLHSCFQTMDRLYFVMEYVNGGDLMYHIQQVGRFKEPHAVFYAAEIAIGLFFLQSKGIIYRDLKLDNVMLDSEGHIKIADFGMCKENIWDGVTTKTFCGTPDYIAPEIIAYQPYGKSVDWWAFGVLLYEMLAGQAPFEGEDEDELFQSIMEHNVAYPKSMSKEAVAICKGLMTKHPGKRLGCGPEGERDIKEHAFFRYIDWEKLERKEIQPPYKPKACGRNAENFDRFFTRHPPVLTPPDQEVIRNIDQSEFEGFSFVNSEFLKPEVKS

In the case of `CCC/C=C/C=C/C(=O)O[C@H]1/C(=C/C(=O)OC)C[C@H]2C[C@H]([C@@H](C)O)OC(=O)C[C@H](O)C[C@@H]3C[C@H](OC(C)=O)C(C)(C)[C@](O)(C[C@@H]4C/C(=C/C(=O)OC)C[C@H](/C=C/C(C)(C)[C@]1(O)O2)O4)O3` [Bryostatin 1], the “kinetics of leukemic clearance in vitro by drug-exposed CAR T cells” value [1] is reported as “no change”, the “PKCβII protein levels on ALL” value [2] is reported as “decreased” and the “vacuolated CD22 compared to DMSO controls” value [3] is reported as “less vacuolated CD22”. For the same compound, the “IFN-γ produced by pre-treated CD22 CAR relative to DMSO-control” value [4, 5] was “attenuated levels”, the “granzyme B produced by pre-treated CD22 CAR relative to DMSO-control” value [4, 5] was “significantly increased levels” and the “Granzyme B production by the CD19 CAR” value ([4]; SEM cells exposed to 1 nM for 24 hours) was “did not show improved Granzyme B production”. For the same compound, the “production of IL-2, IFN-γ, and granzyme B by the CD22 CAR” value ([4]; pre-treatment of B-ALL and DLBCL target cells, 1 ng/ml 24 hours) was “significantly enhanced”.
